The record followed here is DBAASP.

In brackets after ≈: the same amount, converted by molar mass.

Among the test systems are Candida albicans MDM8; Micrococcus luteus A270; Escherichia coli SBS 363; Escherichia coli MC1041; Escherichia coli BW25113; Escherichia coli JW0013; Escherichia coli J2210; Escherichia coli JJ2489.
Common to all, as to assay: ≥ marks a high value that may be exact or a test limit, other limits are often not marked, values filed in µg/mL are converted to µM
The test system of assay [1] is Staphylococcus aureus ATCC 33591.
For assay [2], the system named is Escherichia coli ATCC 2592.
For assay [3], the system named is Cryptococcus neoformans ATCC 32045.
The test system of assay [4] is Pseudomonas aeruginosa ATCC 10145.
Assay [5] relates to Candida albicans ATCC 10231.
In assay [6] the test system is Bacillus megaterium ATCC 10778.
The subject of assay [7] is Staphylococcus aureus ATCC 29213.
The subject of assay [8] is Staphylococcus epidermidis ATCC 12228.
Assay [9] has as its system Serratia marcescens ATCC 4112.
The test system of assay [10] is Enterobacter cloacae beta-12.
In assay [11] the test system is Candida tropicalis IOC 4560.
The test system of assay [12] is Escherichia coli JW0368 ΔsbmA.
Assay [13] relates to Salmonella enterica subsp. enterica serovar Enteritidis MH91989.
For assay [14], the system named is Escherichia coli JW2778 ΔygdD.
Assay [15] has as its system Salmonella typhimurium SL1344.
The test system of assay [16] is Pseudomonas aeruginosa H1001.

As to `C[C@H](NC(=O)[C@H](CCCCN)NC(=O)[C@H](Cc1ccccc1)NC(=O)[C@H](C)NC(=O)[C@H](CCCCN)NC(=O)[C@H](Cc1ccccc1)NC(=O)[C@H](C)NC(=O)[C@H](CCCCN)NC(=O)[C@H](Cc1ccccc1)NC(=O)[C@H](C)NC(=O)[C@H](CCCCN)NC(=O)[C@H](Cc1ccccc1)NC(=O)[C@H](C)NC(=O)[C@H](CCCCN)NC(=O)[C@H](Cc1ccccc1)NC(=O)[C@H](C)NC(=O)[C@H](CCCCN)NC(=O)[C@@H](N)Cc1ccccc1)C(=O)O` [FKAFKAFKAFKAFKAFKA], the minimum inhibitory concentration (MIC) (usually the lowest concentration found to suppress growth) in assay [1] was ≥ 238 µM; in [2], 21.2 µM (≈ 44.5 µg/mL); in assay [3], 2.7 µM (≈ 5.66 µg/mL); in assay [4], ≥ 47.7 µM; in assay [5], 169 µM (≈ 354 µg/mL).
Turning to `CC(C)C[C@H](NC(=O)[C@H](C)NC(=O)[C@H](CCCCN)NC(=O)[C@H](CC(C)C)NC(=O)[C@@H](N)Cc1ccccc1)C(=O)N[C@@H](Cc1c[nH]c2ccccc12)C(=O)N[C@@H](CCCCN)C(=O)N[C@H](C(=O)N[C@@H](C)C(=O)N[C@@H](CCCCN)C(=O)N[C@@H](CCCCN)C(=O)N[C@H](C(=O)N[C@@H](Cc1ccccc1)C(N)=O)C(C)C)C(C)C` [FLKALWKVAKKVF], the MIC in assay [6] turned out to be 0.4 µM (≈ 0.631 µg/mL); in assay [7], 0.8 µM (≈ 1.26 µg/mL); against Candida albicans MDM8 it was 1.6 µM (≈ 2.52 µg/mL); against Micrococcus luteus A270 it was 0.4 µM (≈ 0.631 µg/mL); in [8] it was 3.1 µM (≈ 4.89 µg/mL); in the assay with Escherichia coli SBS 363, 1.6 µM (≈ 2.52 µg/mL). For the same compound, the MIC in [9] stood at 0.1 µM (≈ 0.158 µg/mL); in assay [10], 3.1 µM (≈ 4.89 µg/mL); in assay [11], 0.8 µM (≈ 1.26 µg/mL).
On to `CC(C)C[C@H](NC(=O)[C@H](CCCN=C(N)N)NC(=O)[C@@H]1CCCN1C(=O)[C@H](CCCN=C(N)N)NC(=O)[C@@H]1CCCN1C(=O)[C@@H]1CCCN1C(=O)[C@H](CCCN=C(N)N)NC(=O)[C@@H]1CCCN1C(=O)[C@H](CCC(N)=O)NC(=O)[C@@H]1CCCN1C(=O)[C@H](CCCCN)NC(=O)[C@H](Cc1ccc(O)cc1)NC(=O)[C@@H](NC(=O)[C@@H]1CCCN1C(=O)[C@H](CCCCN)NC(=O)[C@H](CC(N)=O)NC(=O)[C@H](CC(N)=O)NC(=O)CN)C(C)C)C(=O)O` [GNNKPVYKPQPRPPRPRL], for which the MIC in [12] is 0.192 µM (≈ 0.406 µg/mL); in assay [13], 0.133 µM (≈ 0.281 µg/mL); against Escherichia coli MC1041 it was 0.192 µM (≈ 0.406 µg/mL); against Escherichia coli BW25113, 0.096 µM (≈ 0.203 µg/mL); against Escherichia coli JW0013, 0.096 µM (≈ 0.203 µg/mL); against Escherichia coli J2210, 0.267 µM (≈ 0.565 µg/mL). Also, the results for the MIC (in assay [14]; in assay [15]; in the assay on Escherichia coli JJ2489) were 0.192 µM (≈ 0.406 µg/mL), 0.192 µM (≈ 0.406 µg/mL) and 0.252 µM (≈ 0.533 µg/mL), respectively.
`CC(C)C[C@H](NC(=O)[C@H](CCCN=C(N)N)NC(=O)[C@@H]1CCCN1C(=O)[C@H](CCCN=C(N)N)NC(=O)[C@@H]1CCCN1C(=O)[C@@H]1CCCN1C(=O)[C@H](CCCN=C(N)N)NC(=O)[C@@H]1CCCN1C(=O)[C@H](CCC(N)=O)NC(=O)[C@@H]1CCCN1C(=O)[C@H](CCCCN)NC(=O)[C@H](Cc1ccc(O)cc1)NC(=O)[C@@H](NC(=O)[C@@H]1CCCN1C(=O)[C@H](CCCN=C(N)N)NC(=O)[C@H](CC(N)=O)NC(=O)[C@H](CC(N)=O)NC(=O)CN)C(C)C)C(=O)O` [GNNRPVYKPQPRPPRPRL]: the MIC amounted to 0.096 µM (≈ 0.206 µg/mL) in assay [12]; 0.096 µM (≈ 0.206 µg/mL) in [13]; 0.133 µM (≈ 0.285 µg/mL) against Escherichia coli MC1041; 0.067 µM (≈ 0.144 µg/mL) against Escherichia coli BW25113; 0.062 µM (≈ 0.133 µg/mL) in the assay with Escherichia coli JW0013; 0.252 µM (≈ 0.54 µg/mL) with Escherichia coli J2210. Besides, the MIC in assay [14] was 0.133 µM (≈ 0.285 µg/mL); in [15], 0.192 µM (≈ 0.411 µg/mL); with Escherichia coli JJ2489 it was 0.133 µM (≈ 0.285 µg/mL).
Regarding `C[C@H](NC(=O)[C@H](Cc1ccccc1)NC(=O)[C@H](CCCN=C(N)N)NC(=O)[C@H](CCCN=C(N)N)NC(=O)[C@H](C)NC(=O)[C@H](Cc1ccccc1)NC(=O)[C@H](CCCN=C(N)N)NC(=O)[C@H](CCCN=C(N)N)NC(=O)[C@H](C)NC(=O)[C@H](Cc1ccccc1)NC(=O)[C@H](CCCN=C(N)N)NC(=O)[C@H](CCCN=C(N)N)NC(=O)[C@H](C)NC(=O)[C@H](Cc1ccccc1)NC(=O)[C@H](CCCN=C(N)N)NC(=O)[C@H](CCCN=C(N)N)NC(=O)[C@H](C)NC(=O)[C@H](Cc1ccccc1)NC(=O)[C@H](CCCN=C(N)N)NC(=O)[C@H](CCCN=C(N)N)NC(=O)[C@H](C)NC(=O)[C@H](Cc1ccccc1)NC(=O)[C@H](CCCN=C(N)N)NC(=O)[C@H](CCCN=C(N)N)NC(=O)[C@H](C)NC(=O)[C@H](Cc1ccccc1)NC(=O)[C@@H](N)CCCN=C(N)N)C(=O)N[C@@H](CCCN=C(N)N)C(=O)O` [RFARRFARRFARRFARRFARRFARRFAR], the MIC in [1] was ≥ 47.4 µM; in assay [2], 11.9 µM (≈ 44.5 µg/mL); in [3], 23.6 µM (≈ 88 µg/mL); in assay [4], 16.6 µM (≈ 62 µg/mL); in [5], 94.7 µM (≈ 354 µg/mL).
As for `CC[C@H](C)[C@H](NC(=O)[C@H](CCCN=C(N)N)NC(=O)[C@H](CCCN=C(N)N)NC(=O)[C@@H]1CCCN1C(=O)[C@@H]1CCCN1C(=O)[C@H](CCCN=C(N)N)NC(=O)[C@@H]1CCCN1C(=O)[C@H](CCCN=C(N)N)NC(=O)[C@@H]1CCCN1C(=O)[C@H](CC(C)C)NC(=O)[C@H](Cc1ccc(O)cc1)NC(=O)[C@@H]1CCCN1C(=O)[C@@H]1CCCN1C(=O)[C@H](CCCCN)NC(=O)[C@H](CC(=O)O)NC(=O)[C@@H](N)C(C)C)C(=O)N[C@@H](Cc1ccc(O)cc1)C(=O)N[C@@H](CS)C(=O)N[C@@H](CCCN=C(N)N)C(=O)NCC(=O)O` [VDKPPYLPRPRPPRRIYCRG], the MIC in assay [16] was 0.0575 µM (≈ 0.14 µg/mL).
Still for that read-out and setting: under `CC[C@H](C)[C@H](NC(=O)[C@H](CCCN=C(N)N)NC(=O)[C@H](CCCN=C(N)N)NC(=O)[C@@H]1CCCN1C(=O)[C@@H]1CCCN1C(=O)[C@H](CCCN=C(N)N)NC(=O)[C@@H]1CCCN1C(=O)[C@H](CCCN=C(N)N)NC(=O)[C@@H]1CCCN1C(=O)[C@H](CC(C)C)NC(=O)[C@H](Cc1ccc(O)cc1)NC(=O)[C@@H]1CCCN1C(=O)[C@@H]1CCCN1C(=O)[C@H](CCCCN)NC(=O)[C@H](CC(=O)O)NC(=O)[C@@H](N)C(C)C)C(=O)N[C@@H](Cc1ccc(O)cc1)C(=O)N[C@@H](CC(N)=O)C(=O)N[C@@H](CCCCN)C(=O)NCC(=O)O` [VDKPPYLPRPRPPRRIYNKG] stands 0.107 µM (≈ 0.26 µg/mL); under `CC[C@H](C)[C@H](NC(=O)[C@H](CCCN=C(N)N)NC(=O)[C@H](CCCN=C(N)N)NC(=O)[C@@H]1CCCN1C(=O)[C@H](CCCN=C(N)N)NC(=O)[C@H](CCCN=C(N)N)NC(=O)[C@@H]1CCCN1C(=O)[C@H](CCCN=C(N)N)NC(=O)[C@@H]1CCCN1C(=O)[C@H](CC(C)C)NC(=O)[C@H](Cc1ccc(O)cc1)NC(=O)[C@@H]1CCCN1C(=O)[C@@H]1CCCN1C(=O)[C@H](CCCCN)NC(=O)[C@H](CC(=O)O)NC(=O)[C@@H](N)C(C)C)C(=O)N[C@@H](Cc1ccc(O)cc1)C(=O)N[C@@H](CC(N)=O)C(=O)N[C@@H](CCCN=C(N)N)C(=O)NCC(=O)O` [VDKPPYLPRPRRPRRIYNRG], 0.0878 µM (≈ 0.22 µg/mL).
